Experimental data published in PubChem BioAssay (NCI).
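Five compound concentrations were applied to cells in 96-well plates for 48 hours; endpoints were derived by simple linear interpolation of the resulting dose-response curve. The concentration for 50% growth inhibition is given as GI50. TGI is the concentration that stops growth completely.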

Tests used:
Experiment in all cases: NCI-60 cell line screen, 48 h
U251 CNS = test system: U251 CNS
IGROV1 ovarian = test system: IGROV1 ovarian
EKVX NSCLC = test system: EKVX NSCLC
LOX IMVI melanoma = test system: LOX IMVI melanoma
SF-295 CNS = test system: SF-295 CNS
HCT-116 colon = test system: HCT-116 colon
HT29 colon = test system: HT29 colon
CAKI-1 renal = test system: CAKI-1 renal
RXF 393 renal = test system: RXF 393 renal
HS 578T breast = test system: HS 578T breast

Row | SMILES | TGI (U251 CNS) [µM] | TGI (IGROV1 ovarian) [µM] | TGI (EKVX NSCLC) [µM] | TGI (LOX IMVI melanoma) [µM] | TGI (SF-295 CNS) [µM] | TGI (HCT-116 colon) [µM] | TGI (HT29 colon) [µM] | TGI (CAKI-1 renal) [µM] | TGI (RXF 393 renal) [µM] | GI50 (U251 CNS) [µM] | GI50 (IGROV1 ovarian) [µM] | GI50 (EKVX NSCLC) [µM] | GI50 (SF-295 CNS) [µM] | GI50 (HCT-116 colon) [µM] | GI50 (HT29 colon) [µM] | GI50 (HS 578T breast) [µM] | TGI (HS 578T breast) [µM] | GI50 (CAKI-1 renal) [µM] | GI50 (RXF 393 renal) [µM] | GI50 (LOX IMVI melanoma) [µM]
1 | CC(C(=O)n1c2ccccc2c2ccccc21)N(c1ccccc1)c1ccccc1 (centres undefined) | 34.7 | 32.6 | 38.8 | 30.6 | 37.1 | 32.7 | 37.7 | 27.7 | 28.4 |  |  |  |  |  |  |  |  |  |  | 
2 | Cc1cc(C(C)(C)C)cc(Cc2cc(C(C)(C)C)cc(Cc3cc(C(C)(C)C)cc(C)c3O)c2O)c1O | 14.9 | 23.5 | 22.9 | 21 | 29.4 | 10.2 | 24 | 25.6 | 6.26 |  |  |  |  |  |  |  |  |  |  | 
3 | CCOC(=O)Cn1c(=O)n(C)c(=O)c2c1ncn2Cc1ccccc1 | > 100 | > 100 | > 100 |  |  | > 100 | > 100 | > 100 |  |  |  |  |  |  |  |  |  |  |  | 
4 | CO/N=C(/C)c1cccc(Nc2cc(-c3ccccc3)nc3ccc(OC)cc23)c1 | 23.7 | > 100 | 30.3 |  | 21.1 | 18.4 | > 100 | 10.9 |  | 6.62 | 26.2 | 10.8 | 3.82 | 4.25 | 34.1 | 27.6 | 64.3 | 3.18 |  | 
5 | COC(=O)c1cccc2cccc(C(=O)Nc3ccc(Cl)cc3)c12 | > 100 | > 100 | > 100 | > 100 | > 100 | > 100 | > 100 | > 100 | > 100 |  |  |  |  |  |  |  |  |  |  | 
6 | CC[C@@]1(O)C(=O)OCc2c1cc1n(c2=O)Cc2c-1nc1cc(F)c(C)c3c1c2[C@@H](N)CC3 | > 100 | 1.59 | > 100 |  | 0.0915 | 12.3 | > 100 | 0.101 | 0.0254 | < 0.01 | 0.0162 | 0.0377 | < 0.01 | < 0.01 | < 0.01 | 0.735 | > 100 | < 0.01 | < 0.01 | 
7 | OCCNCCOc1ccc(/C(=C(/Cl)c2ccccc2)c2ccccc2)cc1 | 21.1 | 25.4 | 28.6 | 16.6 | 28.5 | 20.2 | 10 | 25.7 | 14.7 |  |  |  |  |  |  |  |  |  |  | 
8 | c1ccc(CSc2nc3ccccc3nc2-c2cccs2)cc1 | > 100 | > 100 | > 100 |  | > 100 | > 100 | > 100 |  |  |  |  |  |  |  |  |  |  |  |  | 
9 | Cc1ccc(S(=O)(=O)NC(=O)NC2=NC(C)(C)N(c3ccc(Cl)c(Cl)c3)C(N)=N2)cc1 | > 100 | > 100 | > 100 |  | > 100 | > 100 | > 100 | > 100 | > 100 |  |  |  |  |  |  |  | > 100 |  |  | 
10 | COCOc1ccc(C2(O)Oc3cc(OCOC)ccc3C2C)c(O)c1 (centres undefined) | 28.2 | 31.6 | 28.2 | 34.6 | 29 | 27.6 | 32.2 | 30.4 | 31.1 |  |  |  |  |  |  |  |  |  |  | 
11 | O=C1C(=O)N(c2cc(Cl)ccc2Cl)C(=O)C(=O)C1c1nc2ccccc2o1 | > 100 | > 100 | > 100 | > 100 | > 100 | > 100 | > 100 | > 100 | > 100 |  |  |  |  |  |  |  |  |  |  | 
12 | COC1=C(Br)C(=O)c2nc(C)ccc2C1=O | 28.5 | 33.9 | 33.4 | 24.3 | 34.7 | 21.1 | 34.9 | 29.3 | 24.5 |  |  |  |  |  |  |  |  |  |  | 
13 | CCOC(=O)/C(=C/c1cccc(C#N)c1)N(CC)CC | > 100 | > 100 | > 100 | > 100 | > 100 | > 100 | > 100 | > 100 |  |  |  |  |  |  |  |  |  |  |  | 
14 | CCN(CC)c1cc2oc3cc(N)cc(=N)c-3nc2cc1C | 14.7 | 14.3 | 54.6 |  | 5.19 | 5.69 | 15.6 | 6.78 | 26.9 | 3.13 | 3.03 | 4.02 | 1.85 | 1.83 | 3.49 | 2.18 | 7.25 | 1.65 | 13.1 | 
15 | O=S1(=O)OCCOS(=O)(=O)C1Cl |  | > 100 | > 100 |  | > 100 | > 100 | > 100 | > 100 |  |  |  |  |  |  |  |  |  |  |  | 
16 | N#Cc1ccc(OC(=O)Nc2ccc(Cl)c(Cl)c2)cc1 | 23.2 | > 100 |  |  | 7.64 | > 100 | 28.6 | 18.2 | 42.2 | 3.04 | 4.04 |  | 2.54 | 3.4 | 3.35 | 5.02 | 28.9 | 3.4 | 7.3 | 
17 | O=c1c2ccccc2nc(-c2ccccc2)n1NC(=S)Nc1ccccc1 | > 100 | > 100 |  | > 100 | > 100 | > 100 | > 100 | > 100 | > 100 |  |  |  |  |  |  |  |  |  |  | 
18 | N.N.NCCCCCCCCCN.O=C([O-])CC(=O)[O-].O=C([O-])CC(=O)[O-].[Pt+4].[Pt+4] | > 100 | > 100 | > 100 | > 100 | > 100 | > 100 | > 100 | 91.1 | > 100 | 95.2 | > 100 | > 100 | > 100 | > 100 | > 100 |  |  | 22.3 | > 100 | > 100
19 | CN(C)CCSc1nccc(-c2cc3ccccc3s2)n1 | 57.1 | > 100 |  | 32.2 | 31 | 50.9 | 24.3 | 56.7 | 56 |  |  |  |  |  |  |  |  |  |  | 
20 | CC1CN1c1c(C(=O)/C=C/c2ccc(Cl)cc2)c(-c2ccccc2)nn(C)c1=O (centres undefined) | 5.36 | 8.68 | > 10 | 4.17 | > 10 | 6.47 | > 10 | > 10 | 8.4 |  |  |  |  |  |  |  |  |  |  | 
